In ChEMBL document CHEMBL1275539 (2008):
≈ marks a conversion by molar mass, not a printed value.

Legend:
Assay type in all cases: functional
Streptococcus pneumoniae [1] = test: Antibacterial activity against amoxicillin-intermediate Streptococcus pneumoniae isolate by agar dilution method
Streptococcus pneumoniae [2] = test: Antibacterial activity against penicillin-nonsusceptible Streptococcus pneumoniae isolate by agar dilution method
Streptococcus pneumoniae [3] = test: Antibacterial activity against penicillin-susceptible Streptococcus pneumoniae assessed as percent susceptible isolates by agar dilution method
Streptococcus pneumoniae [4] = test: Antibacterial activity against levofloxacin-resistant Streptococcus pneumoniae isolate by agar dilution method
Streptococcus pneumoniae [5] = test: Antibacterial activity against cefotaxime-resistant Streptococcus pneumoniae assessed as percent susceptible isolates by agar dilution method
Streptococcus pneumoniae [6] = test: Antibacterial activity against cefotaxime-intermediate Streptococcus pneumoniae assessed as percent susceptible isolates by agar dilution method
Streptococcus pneumoniae [7] = test: Antibacterial activity against cefotaxime-resistant Streptococcus pneumoniae isolate by agar dilution method
Streptococcus pneumoniae [8] = test: Antibacterial activity against cefotaxime-intermediate Streptococcus pneumoniae isolate by agar dilution method
Streptococcus pneumoniae [9] = test: Antibacterial activity against erythromycin-resistant Streptococcus pneumoniae assessed as percent susceptible isolates by agar dilution method
Streptococcus pneumoniae [10] = test: Antibacterial activity against penicillin-susceptible Streptococcus pneumoniae isolate by agar dilution method
Streptococcus pneumoniae [11] = test: Antibacterial activity against amoxicillin-intermediate Streptococcus pneumoniae assessed as percent susceptible isolates by agar dilution method
Streptococcus pneumoniae [12] = test: Antibacterial activity against levofloxacin-resistant Streptococcus pneumoniae assessed as percent susceptible isolates by agar dilution method
Streptococcus pneumoniae [13] = test: Antibacterial activity against amoxicillin-resistant Streptococcus pneumoniae assessed as percent susceptible isolates by agar dilution method
Streptococcus pneumoniae [14] = test: Antibacterial activity against penicillin-nonsusceptible Streptococcus pneumoniae assessed as percent susceptible isolates by agar dilution method
Streptococcus pneumoniae [15] = test: Antibacterial activity against amoxicillin-resistant Streptococcus pneumoniae isolate by agar dilution method
Streptococcus pneumoniae [16] = test: Antibacterial activity against erythromycin-resistant Streptococcus pneumoniae isolate by agar dilution method

SMILES	MIC50 (Streptococcus pneumoniae [1]) [µg/mL]	MIC90 (Streptococcus pneumoniae [1]) [µg/mL]	MIC50 (Streptococcus pneumoniae [2]) [µg/mL]	MIC90 (Streptococcus pneumoniae [2]) [µg/mL]	Activity (Streptococcus pneumoniae [3]) [%]	MIC50 (Streptococcus pneumoniae [4]) [µg/mL]	MIC90 (Streptococcus pneumoniae [4]) [µg/mL]	Activity (Streptococcus pneumoniae [5]) [%]	Activity (Streptococcus pneumoniae [6]) [%]	MIC90 (Streptococcus pneumoniae [7]) [µg/mL]	MIC50 (Streptococcus pneumoniae [8]) [µg/mL]	MIC90 (Streptococcus pneumoniae [8]) [µg/mL]	Activity (Streptococcus pneumoniae [9]) [%]	Activity (Streptococcus pneumoniae [11]) [%]	Activity (Streptococcus pneumoniae [12]) [%]	Activity (Streptococcus pneumoniae [13]) [%]	Activity (Streptococcus pneumoniae [14]) [%]	MIC50 (Streptococcus pneumoniae [15]) [µg/mL]	MIC90 (Streptococcus pneumoniae [15]) [µg/mL]	MIC90 (Streptococcus pneumoniae [16]) [µg/mL]	further results
CO/N=C(\C(=O)N[C@@H]1C(=O)N2C(C(=O)O)=C(CSc3nc(=O)c(O)nn3C)CS[C@H]12)c1csc(N)n1 [CEFTRIAXONE]	1 (≈ 1.8 µM)	1 (≈ 1.8 µM)	1 (≈ 1.8 µM)	2 (≈ 3.61 µM)	98.8	0.06 (≈ 0.108 µM)	1 (≈ 1.8 µM)	31.3	97.2	4 (≈ 7.21 µM)	1 (≈ 1.8 µM)	1 (≈ 1.8 µM)	97.1	95.3	99.3	95.2	83.3	1 (≈ 1.8 µM)	1 (≈ 1.8 µM)	1 (≈ 1.8 µM)	MIC50 (Streptococcus pneumoniae [7]): 2 µg/mL (≈ 3.61 µM); MIC50 (Streptococcus pneumoniae [10]): 0.5 µg/mL (≈ 0.902 µM); MIC90 (Streptococcus pneumoniae [10]): 1 µg/mL (≈ 1.8 µM); MIC50 (Streptococcus pneumoniae [16]): 0.5 µg/mL (≈ 0.902 µM)
CO/N=C(\C(=O)N[C@@H]1C(=O)N2C(C(=O)O)=C(COC(N)=O)CS[C@H]12)c1ccco1 [CEFUROXIME]	4 (≈ 9.43 µM)	16 (≈ 37.7 µM)	8 (≈ 18.9 µM)	16 (≈ 37.7 µM)	31.6	0.25 (≈ 0.589 µM)	8 (≈ 18.9 µM)		0	≥ 32	8 (≈ 18.9 µM)	16 (≈ 37.7 µM)	26.8	0	55.3		0	8 (≈ 18.9 µM)	16 (≈ 37.7 µM)	8 (≈ 18.9 µM)	MIC50 (Streptococcus pneumoniae [7]): 16 µg/mL (≈ 37.7 µM); MIC50 (Streptococcus pneumoniae [10]): 4 µg/mL (≈ 9.43 µM); MIC90 (Streptococcus pneumoniae [10]): 8 µg/mL (≈ 18.9 µM); MIC50 (Streptococcus pneumoniae [16]): 4 µg/mL (≈ 9.43 µM)
CC[C@H]1OC(=O)[C@H](C)[C@@H](O[C@H]2C[C@@](C)(OC)[C@@H](O)[C@H](C)O2)[C@H](C)[C@@H](O[C@@H]2O[C@H](C)C[C@H](N(C)C)[C@H]2O)[C@](C)(O)C[C@@H](C)C(=O)[C@H](C)[C@@H](O)[C@]1(C)O [ERYTHROMYCIN]	≥ 32	≥ 32	≤ 0.12	≥ 32				62.5	50		0.25 (≈ 0.341 µM)	≥ 32	0	30.6	40.8	58.2	63.3	< 0.12			
C[C@H]1COc2c(N3CCN(C)CC3)c(F)cc3c(=O)c(C(=O)O)cn1c23.C[C@H]1COc2c(N3CCN(C)CC3)c(F)cc3c(=O)c(C(=O)O)cn1c23.O [LEVOFLOXACIN]	≤ 1	16	≤ 1	≤ 1		16	≥ 32	93.8	97.2	1	≤ 1	1	72		0	86.7	95	< 1	16	16	
CC1(C)S[C@@H]2[C@H](NC(=O)Cc3ccccc3)C(=O)N2[C@H]1C(=O)O [PENICILLIN G]	2 (≈ 5.98 µM)	2 (≈ 5.98 µM)	4 (≈ 12 µM)	4 (≈ 12 µM)	100	0.06 (≈ 0.179 µM)	2 (≈ 5.98 µM)	31.3	76.4	8 (≈ 23.9 µM)	2 (≈ 5.98 µM)	4 (≈ 12 µM)	93.5	94.1	98	71.5	0	2 (≈ 5.98 µM)	4 (≈ 12 µM)	2 (≈ 5.98 µM)	MIC50 (Streptococcus pneumoniae [7]): 4 µg/mL (≈ 12 µM); MIC50 (Streptococcus pneumoniae [10]): 1 µg/mL (≈ 2.99 µM); MIC90 (Streptococcus pneumoniae [10]): 2 µg/mL (≈ 5.98 µM); MIC50 (Streptococcus pneumoniae [16]): 1 µg/mL (≈ 2.99 µM)
